Laboratory results published in patent US20120095445A1, “METHODS AND COMPOSITIONS FOR INCREASING TRICHOGENIC POTENCY OF DERMAL CELLS” (Aderans Research Institute, Inc., priority 2009, published 2012).

How the values were obtained:
human adult dermal cells = assay: Aderans Hair Patch Assay (hybrid patch assay) with cultured human adult dermal cells; type: cell-based
Excerpt: Trichogenic activity of populations of dermal cells can be determined by using the Aderans Hair Patch Assay™ (Zheng, Y., J Invest Dermatol, 124: 867-876 (2005)). In this assay dissociated dermal and epidermal cells are implanted into the dermis or the subcutis of an immunoincompetent mouse. Using mouse newborn skin cells, new hair follicles typically form in this assay within 8 to 10 days. The newly formed follicle manifests normal hair shafts, mature sebaceous glands, and a natural hair cycle. Although normal cycling hair follicles are formed in this assay, the assay primarily measures the ability of cells or combinations of cells to form new follicles. Mouse dermal cells are assayed in conjunction with mouse neonatal epidermal cells.
(§1) Trichogenic activity of populations of dermal cells was determined by the Aderans Hair Patch Assay™ (Zheng, Y., J Invest Dermatol, 124: 867-876 (2005)). In this assay dissociated dermal and epidermal cells are implanted into the dermis or the subcutis of an immunoincompetent mouse. Using mouse newborn skin cells, new hair follicles typically form in this assay within 8 to 10 days. The newly formed follicle manifests normal hair shafts, mature sebaceous glands, and a natural hair cycle. Although normal cycling hair follicles are formed in this assay, the assay primarily measures the ability of cells or combinations of cells to form new follicles. In the classical Patch assay mouse neonatal dermal cells were assayed in conjunction with mouse neonatal epidermal cells. In a modification of that assay human adult dermal cells are assayed in the presence of mouse newborn epidermal cells.
In the initial study four different concentrations of one of the Curls, Inc. Shh pathway agonist (agonist A-CUR-0201365) were used, 0, 0.005, 0.05 and 0.125 ug/ml (FIG. 2A). […] The number of hair follicles formed in the hair patch assay is greater when the cells are grown in the presence of the Shh pathway agonist.
To investigate if Shh pathway agonist can increase cell inductivity with short-term treatment (7 days before harvest); 3 patient samples were tested using agonist B. For each sample, the cells were treated with 0, 0.0125, 0.0375, 0.05 and 0.15 ug/ml of Shh pathway agonist B at the passage P1 or P2. P1 and P2 cells were then harvested after approximately 7 days and analyzed in the hybrid patch assay. […] Cells were treated for that 7 day period only, but not treated prior to that.

dermal cells = assay: Growth and yield of dermal cells in culture (population doubling time, number of cells); type: cell-based, human
Excerpt: FIG. 3A is a graph showing the population doubling time of dermal cells treated with the indicated amount of a Shh pathway agonist. FIG. 3B is a graph showing number of cells (millions) of dermal cells treated with Shh pathway agonist at confluence.
FIG. 5A is a graph showing the average number of cells (millions) in flasks using dermal cells treated with the indicated amount of Shh pathway agonist after one passage in culture. FIG. 5B is a graph showing the average number of cells (millions) in flasks using dermal cells treated with the indicated amount of Shh pathway agonist after two passages in culture. FIG. 5C is a graph of population doubling time (days) for dermal cells treated with the indicated amount of Shh pathway agonist after one passage in culture. FIG. 5D is a graph of population doubling time (days) for dermal cells treated with the indicated amount of Shh pathway agonist after two passages in culture.

[1] = test system: mouse neonatal dermal cells; assay: Patch assay with mouse neonatal dermal cell culture; type: cell-based
Procedure: as §1
In addition to cultured human cells, the SHH pathway agonist B was added to mouse neonatal dermal cell culture.

human fetal cells = assay: Aderans Hair Patch Assay with human fetal cell cultures; type: cell-based; conditions: for effect on hair number: FIG. 9
Excerpt: FIG. 7 is a graph of the number of hair follicles formed from human fetal cell cultures in the Aderans Hair Patch Assay™ versus the indicated cell culture passage P0, P1, P2 or P3 in cells culture with a Shh pathway agonist. Each passage has a pair of columns with the left column corresponding to results obtained without treating the cells with an agonist and a right column showing results with cells treated with an agonist.
FIG. 8 is a graph of number of hair follicles formed from human fetal cell cultures in the Aderans Hair Patch Assay™ in untreated or treated cells at the indicated cell culture passage.
FIG. 9 is a graph of the number of hair follicles formed from human fetal cell cultures in the Aderans Hair Patch Assay™ in the indicated medium.
as §1
We have recently extended our study of the impact of SHH pathway agonist B (CUR-0236715) on hair inducing activity from human adult cells to human fetal cells, as well as mouse cells.
In another experiment, cells were initially cultured in medium without SHH pathway agonist. The SHH pathway agonist CUR-0236715 was only added to the culture at the beginning of a particular passage, and lasted for that passage only (P1 and P4 as shown in FIG. 8). Adding SHH pathway agonist B (CUR-0236715) at these later passages can still increase fetal cell trichogenicity.

## CNC1CCC(N(Cc2cc(-c3ccccc3)ccc2OC)C(=O)c2sc3ccccc3c2Cl)CC1 (stereo not drawn) [agonist A]
Human adult dermal cells; cells grown in medium with agonist, 0.005-0.625 ug/ml, FIG. 2
  hair follicles in the patch assay (per million cells injected) compared to non-treated cells: produced more hair follicles
Human adult dermal cells; highest concentration, without agonist trichogenicity diminished
  trichogenicity with passage (P1 through P4): remained at a high level
Human adult dermal cells; increasing agonist concentration in the medium
  dose-response relationship of hair follicle number in patch assay: increasing effect (hair follicle number in patch assay) with increasing Shh pathway agonist concentration
Dermal cells; in the higher concentrations, FIG. 3
  cell growth rate: decreases

## CNC1CCC(N(Cc2cc(-c3ccc(NS(C)(=O)=O)nc3)ccc2OC)C(=O)c2sc3c(F)ccc(F)c3c2Cl)CC1 (stereo not drawn) [agonist B]
Human adult dermal cells; 7 day treatment only
  short term results versus continuous treatment: comparable to that of continuous treatment
Human adult dermal cells; continuous treatment, at P2, FIG. 4B
  optimal concentration for hair follicle formation: 0.0375 µg/mL
Human adult dermal cells; continuous treatment, various agonist concentrations, FIG. 4
  hair follicle number in patch assays: increased hair follicle number
Human adult dermal cells; short-term treatment (7 days before harvest), 0.0125-0.15 ug/ml, P1 or P2, 3 patient samples, FIGS. 6A and 6B
  hair follicle numbers compared to the control: higher hair follicle numbers
Human adult dermal cells; short-term treatment (7 days), P1 and P2 cells
  optimal concentration: 0.0375 µg/mL
[1]
  size of hair follicles compared to non-treated cells: increased significantly
[1]; preliminary data, FIG. 10
  activity as indicated by the number of hair follicles formed in patch assay: increased activity
Dermal cells; all the concentrations tested, FIG. 5
  adverse effect on cell growth or yield: did not show any adverse effect
Human fetal cells; 37.5 ng/ml at P0, FIG. 7
  increase in hair number: more than 3 fold
Human fetal cells; Amniomax, Chang's media and culture medium of Osada et al.
  effect on hair number: not significant
Human fetal cells; agonist added to cell culture medium
  effect on hair number: increase of hair number
Human fetal cells; agonist only at P1 or P4
  number of hair follicles versus cells consistently treated throughout the culture: equivalent
Human fetal cells; agonist only at P1 or P4, for that passage only, FIG. 8
  number of hair follicles formed versus no SHH control cells: about 5 fold
Human fetal cells; cells continuously cultured in the presence of agonist, FIG. 7
  increase of hair number at later passages: extended to later passages (P3)
